Data as given in patent US20210000917A1, “METHODS AND COMPOSITION FOR THE TREATMENT OF ALLERGIC ASTHMA” (INSERM (Institut National de la Santé et de la Recherche …, priority 2018, published 2021).

Legend:
Der p 2-specific IgE = Der p 2-specific IgE level in mouse model of HDM-induced asthma; format: in vivo, BALB/c female mice; details: 20 μg peptide in Alum subcutaneously on day 30 and day 34; FIG. 1E serum level
Description: BALB/c female mice aged 6 to 8 weeks were purchased from Charles River Breeding Laboratories and used for all experiments. The animals were housed in UTE IRS-UN platform (Nantes, France). The mice were maintained under specific pathogen-free, temperature-controlled conditions under a strict 12-hour light-dark cycle and were given free access to food and water. The mice were sensitized on days 0, 7, 14 and 21 by percutaneous application of 500 μg of total extract of Dermatophagoïdes farinae (HDM) (Stallergenes, Antony, France) in 20 μl of dimethylsulfoxide (Sigma- Aldrich, St Louis, Mo.) on the ears without any synthetic adjuvant. The mice were challenged intranasally with 250 μg of HDM (House Dust Mite) in 40 μl of sterile PBS on day 27, 28 and 29 to induce asthma and again on days 35, 36 and 37 to induce asthma exacerbation. Animals were anesthetized with 100 μg of xylazine (ROMPUN 2%, Bayer, Lyon, France, 15 mg/kg) intraperitoneally and 100 μl of ketamine (IMALGENE100, Merial, Lyon, France, 80 mg/kg) for both sensitizations and challenges. Mice were sacrified by […] injection of dolethal (vetoquinol) on day 39 (FIG. 1A). For dynamic lung resistance measurements, mice were anesthetized with 200 μl of a ketamine-xylazine mix and paralyzed with 100 μl of rocuronium bromide (ESMERON, Organon, Kloosterstraat, The Netherlands, 10 mg/ml) intraperitoneally. […]

[1] = test system: mouse model of HDM-induced asthma; assay: BAL cell counts by flow cytometry in mouse model of HDM-induced asthma; format: in vivo, BALB/c female mice; details: 20 μg peptide in Alum subcutaneously on day 30 and day 34, BAL day 38
Description: BALB/c female mice aged 6 to 8 weeks were purchased from Charles River Breeding Laboratories and used for all experiments. The animals were housed in UTE IRS-UN platform (Nantes, France). The mice were maintained under specific pathogen-free, temperature-controlled conditions under a strict 12-hour light-dark cycle and were given free access to food and water. The mice were sensitized on days 0, 7, 14 and 21 by percutaneous application of 500 μg of total extract of Dermatophagoïdes farinae (HDM) (Stallergenes, Antony, France) in 20 μl of dimethylsulfoxide (Sigma- Aldrich, St Louis, Mo.) on the ears without any synthetic adjuvant. The mice were challenged intranasally with 250 μg of HDM (House Dust Mite) in 40 μl of sterile PBS on day 27, 28 and 29 to induce asthma and again on days 35, 36 and 37 to induce asthma exacerbation. Animals were anesthetized with 100 μg of xylazine (ROMPUN 2%, Bayer, Lyon, France, 15 mg/kg) intraperitoneally and 100 μl of ketamine (IMALGENE100, Merial, Lyon, France, 80 mg/kg) for both sensitizations and challenges. […] For dynamic lung resistance measurements, mice were anesthetized with 200 μl of a ketamine-xylazine mix and paralyzed with 100 μl of rocuronium bromide (ESMERON, Organon, Kloosterstraat, The Netherlands, 10 mg/ml) intraperitoneally.
(§1) Derivative peptide (Derp 2.1) was purified as previously described by Chen et al. 1Peptide was injected on day 30 after de third challenge and on day 34 before the fourth challenge. Derp 2.1 was solubilized with sterile PBS to a final concentration of 100 μg/ml. pproximately 200 μl of a solution of Alum (Imject Alum, Thermo Scientific) containing 20 μg of the peptide was injected subcutaneously in the neck of the mice.
One milliliter of sterile PBS was administered to mice through a flexible catheter. Cells and supernatants from the removed fluid were separated by centrifugation. The total cell number was determined by using flow cytometry (see below). Supernatants were stored at −20° C.
For analysis of BAL cells, the following antibodies were used: CD3 PE-Cy7, F4/80 FITC (eBioscience); CCR3 APC (R&D Systems) and Ly6G-PerCP Cy5.5 (BD Biosciences). Stained cells resuspended in PBS were acquired on a BD LSR II (BD Biosciences) and were analyzed on FlowJo software (Tree Star). To study lung, mediastinal lymph nodes (mLN) and spleen T-cell responses, these organs were removed and mechanically disrupted in RPMI 1640 media. Cells were passed through a 40 μm filter. Red blood cells from lung and spleen were lysed with a solution of Red Blood Cells lysis (Sigma Aldrich). Cells from mLN, lung and spleen were transferred to a 96-wells round-bottom plate and were stimulated for 5 hours with a mix containing phorbol 12-myristate 13-acetate (50 ng/ml) and ionomycin (500 ng/ml; Sigma-Aldrich) together. […]

[2] = test system: mouse model of HDM-induced asthma; assay: Treg and natural killer cells by flow cytometry in mouse model of HDM-induced asthma; format: in vivo, BALB/c female mice; details: 20 μg peptide in Alum subcutaneously on day 30 and day 34
Description: BALB/c female mice aged 6 to 8 weeks were purchased from Charles River Breeding Laboratories and used for all experiments. The animals were housed in UTE IRS-UN platform (Nantes, France). The mice were maintained under specific pathogen-free, temperature-controlled conditions under a strict 12-hour light-dark cycle and were given free access to food and water. The mice were sensitized on days 0, 7, 14 and 21 by percutaneous application of 500 μg of total extract of Dermatophagoïdes farinae (HDM) (Stallergenes, Antony, France) in 20 μl of dimethylsulfoxide (Sigma- Aldrich, St Louis, Mo.) on the ears without any synthetic adjuvant. The mice were challenged intranasally with 250 μg of HDM (House Dust Mite) in 40 μl of sterile PBS on day 27, 28 and 29 to induce asthma and again on days 35, 36 and 37 to induce asthma exacerbation. Animals were anesthetized with 100 μg of xylazine (ROMPUN 2%, Bayer, Lyon, France, 15 mg/kg) intraperitoneally and 100 μl of ketamine (IMALGENE100, Merial, Lyon, France, 80 mg/kg) for both sensitizations and challenges. […]
For analysis of BAL cells, the following antibodies were used: CD3 PE-Cy7, F4/80 FITC (eBioscience); CCR3 APC (R&D Systems) and Ly6G-PerCP Cy5.5 (BD Biosciences). Stained cells resuspended in PBS were acquired on a BD LSR II (BD Biosciences) and were analyzed on FlowJo software (Tree Star). […]

[3] = test system: mouse model of HDM-induced asthma; assay: Airway hyperresponsiveness measurement (flexiVent, methacholine) in mouse model of HDM-induced asthma; format: in vivo, BALB/c female mice; details: for respiratory function (airway resistances and elastance to increasing doses of methacholine): 20 μg peptide in Alum subcutaneously on day 30 and day 34, measured day 38, vs asthmatic-like (HDM) mice
Description: BALB/c female mice aged 6 to 8 weeks were purchased from Charles River Breeding Laboratories and used for all experiments. The animals were housed in UTE IRS-UN platform (Nantes, France). The mice were maintained under specific pathogen-free, temperature-controlled conditions under a strict 12-hour light-dark cycle and were given free access to food and water. The mice were sensitized on days 0, 7, 14 and 21 by percutaneous application of 500 μg of total extract of Dermatophagoïdes farinae (HDM) (Stallergenes, Antony, France) in 20 μl of dimethylsulfoxide (Sigma- Aldrich, St Louis, Mo.) on the ears without any synthetic adjuvant. The mice were challenged intranasally with 250 μg of HDM (House Dust Mite) in 40 μl of sterile PBS on day 27, 28 and 29 to induce asthma and again on days 35, 36 and 37 to induce asthma exacerbation. Animals were anesthetized with 100 μg of xylazine (ROMPUN 2%, Bayer, Lyon, France, 15 mg/kg) intraperitoneally and 100 μl of ketamine (IMALGENE100, Merial, Lyon, France, 80 mg/kg) for both sensitizations and challenges. Mice were sacrified by […] injection of dolethal (vetoquinol) on day 39 (FIG. 1A). For dynamic lung resistance measurements, mice were anesthetized with 200 μl of a ketamine-xylazine mix and paralyzed with 100 μl of rocuronium bromide (ESMERON, Organon, Kloosterstraat, The Netherlands, 10 mg/ml) intraperitoneally.
as §1
Dynamic lung resistances were measured using a flexiVent (SCIREQ, Emka). Mice were anesthetized and connected via an endotracheal cannula to a flexiVent system. […] Airway resistances wee continuously monitored and recorded according to manufacturer's instructions.

[4] = cited from earlier work; for in vivo allergenic activity and allergenicity: compared with the Derp 2 allergen; for immunogenicity: in vivo

Molecule	Derp2 specific IgE (Der p 2-specific IgE)	eosinophils in BAL [1]	neutrophils in BAL [1]	eosinophils in BAL ([1]; listed as derp2.1)	neutrophils in BAL ([1]; listed as derp2.1)	regulators lymphocytes T (Treg cells) ([2]; FIG. 1F frequency of lung Treg cells)	natural killer cells ([2]; FIG. 1G number of lung natural killer cells)	respiratory function (airway resistances and elastance to increasing doses of methacholine) [3]	respiratory function (airway resistances and elastance to increasing doses of methacholine) ([3]; listed as derp2.1)	airway hyperresponsiveness and asthma exacerbations ([3]; summary statement comparing Derp 2.1 with Der p 2.2)	in vivo allergenic activity and allergenicity [4]	immunogenicity [4]
Derp2.1: polypeptide having a sequence consisting of amino acids 18 to 70 of SEQ ID NO: 1 (Der p 2 fragment); rDer p 2.1 is the recombinant form from E. coli (DQVDVKDCANHEIKKVLVPGCHGSEPCIIHRGKPFQLEAVFEANQNTKTAKIE; listed as Dermatophagoides pteronyssinus)	reduction	reduced	reduced	reduction	reduction	increase	reduction	improved	respiratory improvement	enables to decrease airway hyperresponsiveness and prevent asthma exacerbations	less in vivo allergenic activity and allergenicity than the Derp 2 allergen	preserved immunogenicity
Der p 2.2: polypeptide consisting of the amino acid sequence 71 to 146 of SEQ ID NO: 1 (Der p 2 fragment) (protein, listed as Dermatophagoides pteronyssinus) IKASIDGLEVDVPGIDPNACHYMKCPLVKGQQYDIKYTWNVPKIAPKSENVVVTVKVMGDDGVLACAIATHAKIRD	–	–	–	–	–	–	–	–	–	–	less in vivo allergenic activity and allergenicity than the Derp 2 allergen	preserved immunogenicity
